# In article PMC9792986, “Synthesis and characterization of semisynthetic analogs of the antifungal occidiofungin” (Frontiers in Microbiology, 2022):
# Several values for one entry are separate records, joined by “and”; a condition that tells them apart may be missing. Equal values may be shown once. Starred links: 1 amine or outer side, 2 acyl side, 3 side chain; linkers in the order of their positions; H or OH if unused. Non-standard residues stand in square brackets, D forms with d. Residues, ends and D or L forms follow the SMILES beside them. X3 = O=C([C@@H](N[*:1])C(O)c1ccc(O)cc1)[*:2]; X2 = CCCCCCCCCCCCNCCC(CC(=O)[*:2])N[*:1]; X1 = NC(=O)C(O)[C@H](N[*:1])C(=O)[*:2]; Dab = NCC[C@H](N)C(=O)O
# Legend:
# [1] = test system: S. cerevisiae, Candida albicans, and Candida glabrata; experiment: MIC comparison with native occidiofungin over the yeasts tested; format: cell-based; conditions: against the Candida species tested and S. cerevisiae strain tested
# Experimental: (§1) MIC assays were performed in duplicate following a modified version of the CLSI M27-A3 protocol as previously described ([Ravichandran et al., 2019]).
# [2] = test system: Saccharomyces cerevisiae cells; experiment: Fluorescent microscopy and competitive binding (uptake) assay with alkyne-occidiofungin; format: cell-based; conditions: 5 min pretreatment at 1X MIC of native occidiofungin, then 1X MIC alkyne-OCF 30 min; fluorescence microscopy
# Experimental: After 30 min, the cells were fixed then permeabilized. Click reaction was performed with azide-derivatized Alexa Fluor 488 as per the kit-supplied protocol (Click-iT EdU imaging kit; Thermo Fisher Scientific). The cells were suspended in […]® Antifade Mounting Medium and visualized with a Leica DM 6B microscope. […] The cells were then fixed, permeabilized and Click reaction was performed as previously described ([Ravichandran et al., 2019]).
# [3] = test system: Saccharomyces cerevisiae DGY6 haploid BY4741; experiment: Minimum inhibitory concentration assay; format: cell-based; conditions: for fold of native compound's concentration at which completely inactive: against S. cerevisiae; for MIC: S. cerevisiae DGY6 haploid BY4741, modified CLSI M27-A3, 24 h incubation, duplicate
# Experimental: as §1
# [4] = HPLC percentage of water at elution (polarity); format: physicochemical; conditions: chromatographic, analytical C18 (Agilent ZORBAX ODS, 5 μm, 4.6 × 250 mm); 30-min gradient from 90 to 20% water/ACN, 0.1% TFA; UV 220 nm; used as measure of polarity
# Experimental: A two-step procedure of reductive amination was used to introduce a primary or secondary amine onto the aldehyde analog. The first step of reaction involves the formation of an intermediate carbinol amine, which is then dehydrated and protonated to form an iminium ion. Subsequent reduction of this iminium ion with sodium borohydride produces an alkylated amine product. The aldehyde analog of occidiofungin was dissolved in DMSO at a concentration of 10 mg/ml. Three amines (undecylamine, dodecylamine, and DL-dihydrosphingosine) were used for reductive amination. Aldehyde analog (10 μl of DMSO stock solution; 100 μg) was mixed with 10-fold excess of an amino lipid (molar ratio) in 400 μl pure methanol. The sample was then incubated at room temperature for at least 16 h. Solid sodium borohydride (6 mg) was weighted on an analytical balance (Adventurer™ Pro AV114C, Ohaus Corporation, USA) and was directly transferred into the reaction mixture, mixed well, and was incubated at room temperature for 5 min. The reaction mixture was diluted to 1 ml with 50% ACN 0.1% TFA and was separated by HPLC using a 30-min gradient from 90 to 20% water/ACN on the analytical C18 column. HPLC solvents contained 0.1% TFA. Products that eluted between 50% and 30% water were collected and analyzed by electrospray ionization mass spectrometry (ESI-MS) on a ThermoFisher DecaXP ion trap mass spectrometer. The yield of each HPLC sample was quantified by comparing the peak area of each analog to the peak area of a 100 μg standard of occidiofungin. Electrospray ionization mass spectrometry (ESI-MS) experiments were performed using a Thermo Scientific Q Exactive Focus. Sample was loop injected (10 μl) and acetonitrile with 0.1% formic acid was used as a mobile phase at a flow rate of 600 μl/min. The Q Exactive Focus HESI source was operated in full MS in positive mode. The mass resolution was tuned to 70,000 FWHM at m/z 200. The spray voltage was set to 3.5 kV, and the sheath gas and auxiliary gas flow rates were set to 40 and 10 arbitrary units, respectively. The transfer capillary temperature was held at 300°C and the S-Lens RF level was set at 50 v. Exactive Series 2.11 /Xcalibur 4.2.47 software was used for data acquisition and processing. The alkyne occidiofungin (alkyne-OCF) used for fluorescent microscopy was synthesized as previously described ([Ravichandran et al., 2019]).
# G-actin = experiment: Pyrene labeled actin polymerization assay; format: biochemical; conditions: 5 μM compound; duplicate
# Experimental: (§2) Actin polymerization and depolymerization assays were performed using the Actin polymerization biochem kit (# BK003; Cytoskeleton, Inc. Denver, CO) following the manufacturer’s instructions with some modifications. Briefly, for the polymerization assay, G-actin stock solution was made at 0.2 mg/ml instead of 0.4 mg/ml. For the depolymerization assay, F-actin stock solution was diluted nine-fold instead of five-fold. Test compounds including phalloidin, DL-dihydrosphingosine analog, and native occidiofungin were tested at a final concentration of 5 μM. The experiments were done in duplicate.
# [5] = test system: Candida glabrata ATCC 2001; experiment: Minimum inhibitory concentration assay; format: cell-based; conditions: C. glabrata ATCC 2001; modified CLSI M27-A3; 24 h incubation; duplicate
# Experimental: as §1
# [6] = test system: Candida albicans ATCC 3147; experiment: Minimum inhibitory concentration assay; format: cell-based; conditions: C. albicans ATCC 3147; modified CLSI M27-A3; 24 h incubation; duplicate
# Experimental: as §1
# F-actin = experiment: Pyrene labeled actin depolymerization assay; format: biochemical; conditions: 5 μM compound; duplicate
# Experimental: as §2
# [7] = target: T1, F-actin (rabbit skeletal muscle filamentous actin) (Oryctolagus cuniculus, UniProt P68135); set-up: method as in Ravichandran et al., 2019; conditions: co-sedimentation, published previously, ref Ravichandran et al., 2019, cited from earlier work; for Kd: read-out: Kd value for binding to F-actin
# T1 construct: Purified rabbit skeletal muscle filamentous actin (AKF99); purchased Cytoskeleton Inc. (Denver, CO) AKF99; host or cells: rabbit skeletal muscle (tissue-purified)
compound,measurement,setting,value
CCCCCCCCCCCCNCCC1CC(=O)N[C@@H](CO)C(=O)N[C@@H](C(O)c2ccc(O)cc2)C(=O)N[C@@H](CCN)C(=O)NCC(=O)N[C@@H](CC(N)=O)C(=O)N[C@@H](CO)C(=O)N[C@@H](C(O)C(N)=O)C(=O)N1 (stereo partly drawn) [Dodecylamine] (cyclo([X1][X2]S[X3][Dab]GNS)),fold of native occidiofungin's inhibitory concentration at which inactive,[1],64 fold
same,effect of pretreatment on internalization of alkyne-OCF,[2],did not interfere with the internalization of the alkyne-OCF
same,fold of native compound's concentration at which completely inactive,[3],64 fold
same,percentage of water for the HPLC retention time,[4],47%
DL-dihydrosphingosine,effect on actin polymerization (in words),G-actin,did not interfere with polymerization or depolymerization
same,MIC,[5],8 µg/mL
same,MIC,[3],2 µg/mL
same,MIC,[6],16 µg/mL
same,percentage of water for the HPLC retention time,[4],33%
same,effect on actin depolymerization (in words),F-actin,did not interfere with polymerization or depolymerization
Undecylamine,fold of native occidiofungin's inhibitory concentration at which inactive,[1],64 fold
same,MIC,[5],>8 µg/mL
same,MIC,[3],>4 µg/mL
same,fold of native compound's concentration at which completely inactive,[3],64 fold
same,MIC,[6],>32 µg/mL
same,percentage of water for the HPLC retention time,[4],50%
"occidiofungin [Native occidiofungin, reference compound]",effect on actin polymerization (in words),G-actin,did not interfere with polymerization or depolymerization
same,effect of pretreatment on internalization of alkyne-OCF,[2],prevented internalization of alkyne-OCF
same,saturation of binding ratio (ligand:actin monomer),[7],more than 20 molecules of occidiofungin to one actin monomer
same,Kd,[7],1050 nM
same,MIC,[5],0.5 µg/mL
same,MIC,[3],0.0625 µg/mL
same,MIC,[6],0.5 µg/mL
same,percentage of water for the HPLC retention time,[4],48%
same,effect on actin depolymerization (in words),F-actin,did not interfere with polymerization or depolymerization
phalloidin,Kd,[7],~8 nM and 8 nM
same,effect on actin depolymerization (in words),F-actin,completely blocked the depolymerization of F-actin
